# Values quoted from earlier work in patent US6113907A, “Pharmaceutical grade St. John's Wort” (priority 1997, dated 2000).
# Conditions: depressed outpatients; cited from earlier work
compound,measurement,value
CCCC/N=C(/c1cc(Cl)ccc1O)c1ccccc1Cl [fengabine],antidepressant effects,antidepressant effects
